Experiment [1] has as its target T1, ROCK II (Rattus norvegicus, UniProt Q62868).
T1 construct: purchased Upstate (Lake Placid, N.Y.)
Briefly: ROCK II kinase assay with [γ-32P] ATP and myelin basic protein substrate (FIG. 3). Type of experiment: biochemical. The note with it: 100 μM ATP, 30 min at 30° C. An excerpt:
The ability of compounds to inhibit ROK activity may be tested in a cell-free assay system using recombinant ROK, radiaoactive ATP, and Myelin basic Protein (MBP). MBP is a highly phosphorylated protein, is inexpensive to buy in purified form, is phosphorylated by ROK, and is used as the assay substrate for phosphorylation. Recombinant ROK has been prepared from a number of sources. Overexpression in mammalian cells provides a convenient, easily renewed source of ROK activity. Measurement of Rho-associated kinase (ROK) activity is important to determine the potency of novel inhibitors. MBP is a substrate for ROK and a number of other protein kinases, making it useful both to quantitate ROK activity and to indicate the potency and specificity of novel inhibitors for ROK. […]
ROCK II was assayed in 20 mM MOPS, pH 7.2, 25 mM β-glycerophosphate, 5 mM EGTA, 1 mM sodium orthovanadate, 1 mM dithiothreitol with dephosphorylated myelin basic protein (MBP, 0.2 mg/ml) as substrate with or without BA-1016 or BA-1017. […] Assays were initiated by adding Mg^2+/ATP and terminated by spotting 40 μl of each reaction onto phosphocellulose paper (P81 paper, Whatman), followed by washes in 0.75% phosphoric acid to remove ATP and then dried, put in scintillation cocktail and counted to measure ^32P incorporation. Radioactivity is measured using a scintillation counter. […]

The target in experiment [2] is T2, human Rho kinase II (ROCK-II (h)) (Homo sapiens, UniProt O75116).
T2 construct: purchased
The experiment is described as follows: Commercial inhibition assay with recombinant human ROCKII, IC50 curves (FIGS. 8, 9). The class given is biochemical. An excerpt:
Referring to FIGS. 8 and 9 inhibiton of ROCKII activity and determination of IC50 may also be done throught the use of known (i.e. commercial) inhibition assays that use recombinant human ROCKII.

The test system of experiment [3] is retinal ganglion cells (RGC). The experiment is described as follows: Retinal ganglion cell survival 7 days after optic nerve axotomy, intravitreal injection. Type of experiment: in vivo, rat. The conditions noted are these: for % Survival / Average RGC counts: 7 days after axotomy. An excerpt: The retinal ganglion cell (RGC) response to injury and ischemia has been well documented (Berkelaar et al., 1994; Selles-Navarro et al., 1996; Vidal-Sanz et al., 1988; Villegas-Perez et al., 1998; Villegas-Perez et al., 1993). Transection of the optic nerve (ON) in the adult rat, as a model of fiber tract lesion in the adult mammalian CNS, results in delayed, mainly apoptotic death of 80-90% of retinal ganglion cells (RGCs) within 14 days post-lesion. Because of good surgical accessibility of the retina and the optic nerve, the retino-tectal projection represents not only a convenient model to study the molecular mechanisms underlying neuronal death but also serves as a suitable system for investigating potential neuroprotective agents in vivo.
After optic nerve transection, many of the retinal ganglion cells (RGC) in the eye die by apoptosis. The ability of BA-1016 to support RGC cell survival after optic nerve injury was tested. A single injection of BA-1016 was made in the eye, and one week later cell survival was assessed. Three animals were examined for each treatment group. Cell survival was improved one week after BA-1016. Neurotrophic factors that are known to rescue RGCs also give improved cell surival one week after axotomy, but multiple or chronic application is needed to increase the number of surviving cells.
Experiments were performed on adult female CD rats (180-200 g; Charles River, Canada). Animals were cared for according to the Canadian Council on Animal Care. Rats were under general anaesthesia with isofluorane connected to Moduflex Access anaesthesia machine during experimental procedures. Ophthalmic eye ointment (Polysporin) was applied to prevent corneal desiccation. […] All rats were pre-labelled with Fluorogold one week prior to optic nerve lesion.
One week after Fluorogold application, the left optic nerve was transected 1 mm from the eye. […] There are blood vessels on pia and optic nerve. The pia mater sheath was lifted and a lateral incision exposed the optic nerve. It was important not to cut the optic nerve before cutting the pia. When pia was cut, the optic nerve was moved gently to dislodge it from its sheath so that the scissors could be slipped under it to cut it. It was important to not pull the nerve at this point to avoid compromising the blood supply. When the optic nerve was well exposed, small scissors were slid tangentially under optic nerve, making sure to see their end on other side of the nerve, then cutting with one clean cut at 1 mm from the eye. Scissor blades were used as a reference for the 1 mm distance.
In the group of animals assigned to receive intravitreal injection after axotomy, the compounds of interest were injected into the vitreous space. […] The needle was removed after one minute. […]
A binocular microscope was used to view the eye during injection. The skin was closed with staples (auto clips) and the integrity of the retinal vasculature was evaluated by a postoperative ophthalmoscopy using a water-covered microscope slide. […] Finally the animals were returned to the cage and closely monitored until awakened
Seven days after axotomy, animals were killed by injecting an overdose of Chloral hydrate intraperitoneally and then they were fixed by perfusion with 4% paraformaldehyde (PFA), 0.1 M phosphate buffer; the eyes were remove carefully transecting the ocular muscles with scissors and forceps. […] RGCs are examined under the fluorescence microscope with an UV filter (365/420). […]

T1 sequence (Q62868 11-550 limits assumed): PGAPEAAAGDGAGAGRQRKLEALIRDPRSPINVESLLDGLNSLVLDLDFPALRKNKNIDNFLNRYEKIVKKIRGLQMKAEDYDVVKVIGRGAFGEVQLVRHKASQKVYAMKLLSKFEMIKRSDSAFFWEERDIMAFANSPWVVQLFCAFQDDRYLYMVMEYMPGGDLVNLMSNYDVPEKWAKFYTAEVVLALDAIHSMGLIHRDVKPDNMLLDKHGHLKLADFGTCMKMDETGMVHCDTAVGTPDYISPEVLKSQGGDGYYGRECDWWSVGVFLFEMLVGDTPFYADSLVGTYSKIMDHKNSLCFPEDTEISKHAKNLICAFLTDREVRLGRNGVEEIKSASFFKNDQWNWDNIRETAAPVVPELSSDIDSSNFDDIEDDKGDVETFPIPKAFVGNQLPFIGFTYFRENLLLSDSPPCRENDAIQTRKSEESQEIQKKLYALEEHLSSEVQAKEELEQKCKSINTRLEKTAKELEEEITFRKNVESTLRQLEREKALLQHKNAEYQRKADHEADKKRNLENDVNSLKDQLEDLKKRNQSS
T2 sequence (O75116 whole entry): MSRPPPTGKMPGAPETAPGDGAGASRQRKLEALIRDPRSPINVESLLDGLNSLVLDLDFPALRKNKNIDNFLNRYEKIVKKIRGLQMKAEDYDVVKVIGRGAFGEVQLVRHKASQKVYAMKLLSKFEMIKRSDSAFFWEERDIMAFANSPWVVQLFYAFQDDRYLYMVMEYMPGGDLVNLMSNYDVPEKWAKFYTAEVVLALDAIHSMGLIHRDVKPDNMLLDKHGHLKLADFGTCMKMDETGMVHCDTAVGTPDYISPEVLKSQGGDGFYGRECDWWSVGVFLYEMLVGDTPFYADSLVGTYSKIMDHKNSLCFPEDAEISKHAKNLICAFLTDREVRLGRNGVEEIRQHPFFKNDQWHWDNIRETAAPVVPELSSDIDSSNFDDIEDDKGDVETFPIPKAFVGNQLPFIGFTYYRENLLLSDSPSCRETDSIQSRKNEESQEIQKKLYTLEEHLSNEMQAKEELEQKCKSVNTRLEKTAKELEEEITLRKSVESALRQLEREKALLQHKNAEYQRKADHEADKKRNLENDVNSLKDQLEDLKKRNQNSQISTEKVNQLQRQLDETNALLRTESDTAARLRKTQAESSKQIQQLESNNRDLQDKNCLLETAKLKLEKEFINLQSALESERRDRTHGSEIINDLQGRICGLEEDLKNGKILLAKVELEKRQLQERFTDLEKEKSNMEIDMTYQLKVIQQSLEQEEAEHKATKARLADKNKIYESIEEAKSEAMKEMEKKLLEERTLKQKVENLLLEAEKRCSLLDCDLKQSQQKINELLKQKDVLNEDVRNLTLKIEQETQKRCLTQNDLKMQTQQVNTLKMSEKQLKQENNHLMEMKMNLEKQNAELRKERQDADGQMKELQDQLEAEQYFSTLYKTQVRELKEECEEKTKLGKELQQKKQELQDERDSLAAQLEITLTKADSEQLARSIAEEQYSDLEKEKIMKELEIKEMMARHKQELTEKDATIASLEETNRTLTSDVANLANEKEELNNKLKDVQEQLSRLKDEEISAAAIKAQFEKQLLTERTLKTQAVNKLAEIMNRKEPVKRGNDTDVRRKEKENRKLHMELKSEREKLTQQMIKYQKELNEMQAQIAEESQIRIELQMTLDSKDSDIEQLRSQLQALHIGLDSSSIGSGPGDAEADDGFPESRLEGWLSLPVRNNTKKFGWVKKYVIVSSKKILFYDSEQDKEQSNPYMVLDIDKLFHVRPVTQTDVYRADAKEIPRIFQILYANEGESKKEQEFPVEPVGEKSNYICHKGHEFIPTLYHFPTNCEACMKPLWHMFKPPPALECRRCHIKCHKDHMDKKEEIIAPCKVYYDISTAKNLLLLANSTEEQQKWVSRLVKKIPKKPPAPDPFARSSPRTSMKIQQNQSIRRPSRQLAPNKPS

One may read the IC50 as the midpoint of a concentration-inhibition curve. With “(R)-trans-4-(But-3′-en-1′-amino)-N-(4″-pyridyl)cyclohexane Carboxamide Dihydrochloride [BA-1016]”, in experiment [1], the “inhibition of ROCKII activity (FIG. 3)” value is “inhibition of ROCKII activity”. Further, in experiment [2], the IC50 was found to be 1900 nM. Besides, the “% Survival” value in experiment [3] (Axotomy + 0.1 mM) came to 59%; in experiment [3] (Axotomy + 1 mM), 60%. Besides, the “Average RGC counts” value in experiment [3] (Axotomy + 0.1 mM) is recorded as 1352; in experiment [3] (Axotomy + 1 mM) it was 1378. For the same substance, the “RGC cell survival after optic nerve injury” value in experiment [3] (single injection in the eye, one week) is recorded as “improved”.

These data come from patent US20040138272A1, “1,4-Substituted cyclohexane derivatives” (priority 2002, published 2004).
